From US20200079765A1, “SUBSTITUTED HETEROARYL PYRROLONES AND SALTS THEREOF AND USE THEREOF AS HERBICIDAL ACTIVE SUBSTANCES” (Bayer CropScience Aktiengesellschaft, priority 2016, published 2020) come the findings set out here.

Each structure is given as a SMILES string.

What all share (type): in vivo
One test relates to Alopecurus myosuroides. Description: Pre-emergence herbicidal action (Experimental Part 1, B). As to conditions: scored visually after about 3 weeks. An outline of the steps:
(§1)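 Steps: sow seeds, cover with soil; apply WP or EC formulation with 0.5% additive at 600 l/ha water to soil surface (1280 or 320 g/ha); keep in greenhouse ~3 weeks; score % effect visually against untreated controls.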

The subject of the next test is Abutilon theophrasti. Described as above. As to conditions: scored visually after about 3 weeks. An outline of the steps:
as §1

The test system of the next test is Stellaria media. The description is as above. As to conditions: scored visually after about 3 weeks. In short, it runs like this:
as §1

The test system of another test is Matricaria inodora. The test is described as above. As to conditions: scored visually after about 3 weeks. In short, it runs like this:
as §1

The test system of another test is Avena fatua. The test is described as above. As to conditions: scored visually after about 3 weeks. In short, it runs like this: as §1
Test [1] relates to Lolium rigidum. The test is described as above. As to conditions: application rate 1280 g/ha, scored visually after about 3 weeks. An outline of the steps:
as §1

Another test has as its system Echinochloa crus-galli. The description is as above. As to conditions: application rate 1280 g/ha, scored visually after about 3 weeks. In short, it runs like this: as §1
The test system of a further test is Ipomoea purpurea. Described as above. As to conditions: application rate 1280 g/ha, scored visually after about 3 weeks. In short, it runs like this: as §1
The subject of another test is Polygonum convolvulus. The test is described as above. As to conditions: scored visually after about 3 weeks. In short, it runs like this: as §1
For a further test, the system named is Setaria viridis. The description is as above. As to conditions: scored visually after about 3 weeks. In short, it runs like this: as §1
The test system of a further test is Veronica persica. The test is described as above. As to conditions: application rate 1280 g/ha, scored visually after about 3 weeks. An outline of the steps:
as §1

Another test deals with Amaranthus retroflexus. The test is described as above. As to conditions: scored visually after about 3 weeks. In short, it runs like this:
as §1

Another test has as its system Viola tricolor. The test is described as above. As to conditions: scored visually after about 3 weeks. An outline of the steps:
as §1

The test system of a further test is Hordeum murinum. The test is described as above. As to conditions: scored visually after about 3 weeks. An outline of the steps: as §1
Test [2] relates to Lolium rigidum. Description: Post-emergence herbicidal action (Experimental Part 1, A). As to conditions: application rate 1280 g/ha, rated visually after about 3 weeks. In short, it runs like this:
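Greenhouse post-emergence spray test; sandy loam; treatment at one-leaf stage (2–3 wk after sowing); WP/EC formulation, 0.5% additive, 600 l/ha; dose 1280 or 320 g/ha; visual rating ~3 wk later, 0–100% scale.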

Consider `CC1=CC(=O)N(c2cc(C(C)(C)C)on2)C1O` (stereo not drawn) [I.1-162, 5-Hydroxy-4-methyl-1-(5-tert-butyl-1,2-isoxazol-3-yl)-1,5-dihydro-2H-pyrrol-2-one], for which the figures for the “Alopecurus myosuroides, herbicidal activity” value with Alopecurus myosuroides (application rate 320 g/ha) and in the test on Alopecurus myosuroides (application rate 1280 g/ha) were 90% and 100%, respectively. Further, the “Abutilon theophrasti, herbicidal activity” value with Abutilon theophrasti (application rate 320 g/ha) and with Abutilon theophrasti (application rate 1280 g/ha) was 100% throughout. The “Stellaria media, herbicidal activity” value with Stellaria media (application rate 320 g/ha) and with Stellaria media (application rate 1280 g/ha) was 100% in each case. The “Matricaria inodora, herbicidal activity” value with Matricaria inodora (application rate 320 g/ha) and with Matricaria inodora (application rate 1280 g/ha) was 100% each time. In addition, the “Avena fatua, herbicidal activity” value is given as 90% in the test on Avena fatua (application rate 320 g/ha) and 100% in the test on Avena fatua (application rate 1280 g/ha). Besides, the “Lolium rigidum, herbicidal activity” value in the test on Lolium rigidum [1] was 100%. In addition, in the test on Echinochloa crus-galli, the “Echinochloa crus-galli, herbicidal activity” value came out at 100%. For the same compound, the “Ipomoea purpurea, herbicidal activity” value in the test with Ipomoea purpurea is recorded as 100%. The “Polygonum convolvulus, herbicidal activity” value with Polygonum convolvulus (application rate 320 g/ha) and in the test on Polygonum convolvulus (application rate 1280 g/ha) was 100% each time. For the same compound, the “Setaria viridis, herbicidal activity” value in the test on Setaria viridis (application rate 320 g/ha) and in the test with Setaria viridis (application rate 1280 g/ha) was 100% in each case. In the test on Veronica persica, the “Veronica persica, herbicidal activity” value came out at 100%. The “Amaranthus retroflexus, herbicidal activity” value in the test with Amaranthus retroflexus (application rate 320 g/ha) and in the test with Amaranthus retroflexus (application rate 1280 g/ha) was 100% throughout. Moreover, the “Viola tricolor, herbicidal activity” value in the test on Viola tricolor (application rate 320 g/ha) and in the test on Viola tricolor (application rate 1280 g/ha) was 100% throughout. Further, the “Hordeum murinum, herbicidal activity” value with Hordeum murinum (application rate 320 g/ha) came out at 90%; in the test on Hordeum murinum (application rate 1280 g/ha), 100%.
`CCC(=O)OC1C(C)=CC(=O)N1c1cc(C(C)(C)C)on1` (stereo not drawn) [I.5-162]: the “Lolium rigidum, herbicidal activity” value with Lolium rigidum [2] and in the test with Lolium rigidum [1] was 90% in each case. The “Alopecurus myosuroides, herbicidal activity” value in the test with Alopecurus myosuroides (application rate 320 g/ha) and in the test on Alopecurus myosuroides (application rate 1280 g/ha) was 90% throughout. Also, the “Abutilon theophrasti, herbicidal activity” value with Abutilon theophrasti (application rate 320 g/ha) and in the test with Abutilon theophrasti (application rate 1280 g/ha) was 100% in each case. Further, the “Stellaria media, herbicidal activity” value in the test with Stellaria media (application rate 320 g/ha) and with Stellaria media (application rate 1280 g/ha) was 100% throughout. For the same compound, the “Matricaria inodora, herbicidal activity” value in the test with Matricaria inodora (application rate 320 g/ha) and in the test on Matricaria inodora (application rate 1280 g/ha) was 100% each time. Also, the “Avena fatua, herbicidal activity” value with Avena fatua (application rate 320 g/ha) and with Avena fatua (application rate 1280 g/ha) was 90% in each case. For the same compound, the “Echinochloa crus-galli, herbicidal activity” value with Echinochloa crus-galli is 100%. Moreover, the “Ipomoea purpurea, herbicidal activity” value with Ipomoea purpurea is recorded as 90%. For the same compound, the “Polygonum convolvulus, herbicidal activity” value in the test with Polygonum convolvulus (application rate 320 g/ha) and in the test with Polygonum convolvulus (application rate 1280 g/ha) was 100% in each case. Besides, the “Setaria viridis, herbicidal activity” value with Setaria viridis (application rate 320 g/ha) and with Setaria viridis (application rate 1280 g/ha) was 100% in each case. In the test on Veronica persica, the “Veronica persica, herbicidal activity” value is given as 100%. Further, the “Amaranthus retroflexus, herbicidal activity” value with Amaranthus retroflexus (application rate 320 g/ha) and in the test with Amaranthus retroflexus (application rate 1280 g/ha) was 100% in each case. For the same compound, the “Viola tricolor, herbicidal activity” value in the test with Viola tricolor (application rate 320 g/ha) and in the test on Viola tricolor (application rate 1280 g/ha) was 100% in each case. Besides, in the test with Hordeum murinum (application rate 1280 g/ha), the “Hordeum murinum, herbicidal activity” value is 100%.
